In patent US20140356854A1, “METHODS AND COMPOSITIONS RELATING TO MEVALONATE PHOSPHATE DECARBOXYLASE” (Salk Institute for Biological Studies, priority 2013, published 2014):
Values joined by “and” are separate entries in the source; they are usually repeats but may differ in a detail not shown here. Identical values can stand only once. Like-named read-outs stand apart in the source and are kept apart here.

Key:
IPK from B. floridae = IPK from B. floridae (Branchiostoma floridae, UniProt A0A9J7KY69); assay: Steady-state kinetics, coupled assay, IPK
IPK from M. maripaludis = IPK from M. maripaludis (Methanococcus maripaludis, UniProt Q6LWR2); assay: Steady-state kinetics, coupled pyruvate kinase-lactate dehydrogenase assay, IPK
IPK from A. thaliana = IPK from A. thaliana (Arabidopsis thaliana, UniProt Q8H1F7); assay: Kinetics, coupled assay, IPK
PMK from S. solfataricus = PMK from S. solfataricus (Saccharolobus solfataricus, UniProt Q97UL6); assay: Steady-state kinetics, coupled assay, PMK; assay type: biochemical
Chain of PMK from S. solfataricus (Q97UL6 whole entry): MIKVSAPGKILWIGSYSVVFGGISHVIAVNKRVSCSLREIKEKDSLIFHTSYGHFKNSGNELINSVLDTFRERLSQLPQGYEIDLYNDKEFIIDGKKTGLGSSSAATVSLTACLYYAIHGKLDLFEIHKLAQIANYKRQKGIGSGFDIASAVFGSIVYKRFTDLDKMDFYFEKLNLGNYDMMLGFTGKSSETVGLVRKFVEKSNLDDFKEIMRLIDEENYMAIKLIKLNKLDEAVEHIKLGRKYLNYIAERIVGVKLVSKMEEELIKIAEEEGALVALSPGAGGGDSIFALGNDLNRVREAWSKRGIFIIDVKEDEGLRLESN

MJ0403 = MJ0403 (Methanocaldococcus jannaschii, UniProt Q57846); assay: In vitro decarboxylase activity of MJ0403; assay type: biochemical, M. jannaschii
Chain of MJ0403 (Q57846 whole entry): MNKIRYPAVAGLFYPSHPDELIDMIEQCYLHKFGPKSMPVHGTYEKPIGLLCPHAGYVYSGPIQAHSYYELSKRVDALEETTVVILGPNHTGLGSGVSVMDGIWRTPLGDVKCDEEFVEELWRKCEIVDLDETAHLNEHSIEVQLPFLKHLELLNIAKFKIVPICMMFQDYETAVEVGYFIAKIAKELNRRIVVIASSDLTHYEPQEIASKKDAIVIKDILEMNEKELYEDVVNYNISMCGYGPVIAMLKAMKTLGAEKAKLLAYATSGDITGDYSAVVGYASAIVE
Description: MJ0403 encodes a protein that is similar in sequence to subunit B of class III extradiol ring-cleavage dioxygenases and is also homologous to the human protein MEMO (mediator of erbB2-driven cell motility).

PMK from B. floridae = PMK from B. floridae (Branchiostoma floridae, UniProt C3Y1G0); assay: Steady-state kinetics, coupled assay, PMK; assay type: biochemical; settings: substrate MVAP
Chain of PMK from B. floridae (C3Y1G0 1-201): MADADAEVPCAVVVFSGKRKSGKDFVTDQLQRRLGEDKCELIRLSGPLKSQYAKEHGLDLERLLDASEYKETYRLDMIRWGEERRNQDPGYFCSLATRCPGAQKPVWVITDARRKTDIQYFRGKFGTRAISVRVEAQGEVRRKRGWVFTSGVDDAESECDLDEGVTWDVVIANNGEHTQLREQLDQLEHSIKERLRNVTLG

[1] = test system: MPD from R. castenholzii (SEQ ID NO: 1); assay: Steady-state kinetics, coupled assay, MPD; assay type: biochemical
Method: (§1) Instead, it behaves as an MPD and catalyzes the decarboxylation of MVAP (3) to IP (4) with a kcat of 0.94 s^−1 and an apparent KM for MVAP of 1.150 mM (Table 2). This enzyme, by sequence homologous to MDD, has acquired an unexpected new function as a bona fide MPD playing the role of the long sought MPD of the alternative MVA pathway.
(§2) Steady-state kinetic analyses.

[2] = test system: MPD and IPK from R. castenholzii; assay: GC-MS in vitro alternative MVA pathway reaction; assay type: biochemical
Method: (§3) GC-MS quantification of fully functional alternative and classical MVA pathways. To confirm that the functional R. castenholzii MPD (MDD-like protein sequence) catalyzes the transformation of MVAP (3) to IP (4) in a reconstituted in vitro pathway, a five-enzyme in vitro reaction mixture was assembled. Briefly, MVAP (3) and ATP were incubated for 30 min with MPD and IPK from R. castenholzii. The reaction mixture was then diluted into a mixture containing all necessary downstream enzymes to biosynthesize the GC-detectable sesquiterpene 5-epi-aristolochene (5-EA, 6). Similar reactions were performed for the in vitro reconstitution of the classical MVA pathway using PMK and MDD from each respective organism.
All GC-MS assays were carried out in two steps. First, 1 μM of each of two enzymes (PMK and MDD for the classical MVA pathway, MDD and IPK for the alternative MVA pathway) was incubated for 30 min with 500 μM (RS)-MVAP, 4 mM ATP, and 10 mM MgCl2 buffered with 50 mM Tris-HCl, pH 8.0. Second, 40 μl of this reaction was transferred to a glass vial containing 10 mM MgCl2 buffered with 50 mM Tris-HCl, pH 8.0, containing at least a 150-fold excess of each of the following enzymes: E. coli isopentenyl diphosphate isomerase (IPPI), E. coli farnesyl diphosphate synthase (FPPS), and tobacco 5-epi-aristolochene synthase (TEAS). […]

[3] = test system: R. castenholzii MDD homolog with B. floridae PMK; assay type: biochemical
[4] = test system: PMK and MDD from A. thaliana; assay: GC-MS in vitro classical MVA pathway reaction; assay type: biochemical; settings: A. thaliana enzymes, 500 μM (RS)-MVAP, relative to FPP control
Method: as §3
(§4) All GC-MS assays were carried out in two steps. First, 1 μM of each of two enzymes (PMK and MDD for the classical MVA pathway, MDD and IPK for the alternative MVA pathway) was incubated for 30 min with 500 μM (RS)-MVAP, 4 mM ATP, and 10 mM MgCl2 buffered with 50 mM Tris-HCl, pH 8.0. Second, 40 μl of this reaction was transferred to a glass vial containing 10 mM MgCl2 buffered with 50 mM Tris-HCl, pH 8.0, containing at least a 150-fold excess of each of the following enzymes: E. coli isopentenyl diphosphate isomerase (IPPI), E. coli farnesyl diphosphate synthase (FPPS), and tobacco 5-epi-aristolochene synthase (TEAS). This reaction mixture was overlaid with ethyl acetate, incubated overnight, and vortexed to extract hydrocarbons from the aqueous layer. GC-MS assays were performed as previously described (18). All values were compared to a control reaction, where FPP was added in place of MVA pathway enzymes at an appropriate concentration to simulate complete turnover of MVAP.

[5] = test system: PMK and MDD from B. floridae; assay: GC-MS in vitro classical MVA pathway reaction; assay type: biochemical; settings: B. floridae enzymes, 500 μM (RS)-MVAP, relative to FPP control
Method: as §3, §4

[6] = test system: PMK and MDD from S. solfataricus; assay: GC-MS in vitro classical MVA pathway reaction; assay type: biochemical; settings: S. solfataricus enzymes, 500 μM (RS)-MVAP, relative to FPP control
Method: as §3, §4

[7] = test system: IPK and MDD from A. thaliana; assay: GC-MS in vitro alternative MVA pathway reaction; assay type: biochemical
Description: (§5) The in vitro classical MVA pathway reactions for S. solfataricus, A. thaliana, and B. floridae yield 39.2%, 48.7%, and 52.1% conversion of MVAP (3) to 5-EA (6), respectively (FIG. 3). The in vitro classical MVA pathway reaction from R. castenholzii (using B. floridae PMK to complete the missing step) yields less then 0.2% conversion to 5-EA (FIG. 3). In contrast, the in vitro alternative MVA pathway from R. castenholzii enzymes yields a 2.0% conversion of MVAP (3) to 5-EA (6). B. floridae, A. thaliana, and S. solfataricus were tested for a possible alternative MVA pathway components using their IPKs and MDDs.
as §4

[8] = test system: IPK and MDD from B. floridae; assay: GC-MS in vitro alternative MVA pathway reaction; assay type: biochemical
Description: as §5, §4

[9] = test system: IPK and MDD from S. solfataricus; assay: GC-MS in vitro alternative MVA pathway reaction; assay type: biochemical
Description: as §5, §4

MDD from B. floridae = MDD from B. floridae (Branchiostoma floridae, UniProt C3ZGP5); assay: Steady-state kinetics, coupled assay, MDD; assay type: biochemical; settings: substrate MVAPP
Chain of MDD from B. floridae (C3ZGP5 1-409): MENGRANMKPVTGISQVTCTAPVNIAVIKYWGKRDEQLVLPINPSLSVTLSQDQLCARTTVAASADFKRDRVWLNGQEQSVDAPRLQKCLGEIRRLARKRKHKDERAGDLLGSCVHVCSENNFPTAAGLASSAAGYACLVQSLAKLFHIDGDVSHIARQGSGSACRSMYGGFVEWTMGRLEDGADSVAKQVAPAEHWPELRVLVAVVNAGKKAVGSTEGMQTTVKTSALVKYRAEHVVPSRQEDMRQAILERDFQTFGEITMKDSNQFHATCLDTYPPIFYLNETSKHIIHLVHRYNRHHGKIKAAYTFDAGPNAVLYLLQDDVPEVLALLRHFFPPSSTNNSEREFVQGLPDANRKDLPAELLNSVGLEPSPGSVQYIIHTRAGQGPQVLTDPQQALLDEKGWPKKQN

[10] = test system: MDD homolog from R. castenholzii; assay: Steady-state kinetics, MDD homolog tested as MDD; assay type: biochemical
Method: as §1, §2

MDD from S. solfataricus = MDD from S. solfataricus (Saccharolobus solfataricus, UniProt Q97UL5); assay: Steady-state kinetics, MDD; assay type: biochemical; settings: steady state conditions, kinetic parameters could not be assigned
Chain of MDD from S. solfataricus (Q97UL5 whole entry): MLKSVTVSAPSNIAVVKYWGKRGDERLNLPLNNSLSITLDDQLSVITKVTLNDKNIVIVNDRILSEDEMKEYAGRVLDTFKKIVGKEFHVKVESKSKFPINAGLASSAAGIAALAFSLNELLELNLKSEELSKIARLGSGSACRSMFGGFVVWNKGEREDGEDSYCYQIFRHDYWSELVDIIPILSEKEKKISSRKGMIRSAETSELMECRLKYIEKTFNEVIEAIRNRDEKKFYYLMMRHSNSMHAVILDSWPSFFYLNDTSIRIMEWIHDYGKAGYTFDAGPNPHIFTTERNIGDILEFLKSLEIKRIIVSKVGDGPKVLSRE

[11] = substrate: CC(O)(CCOP(=O)(O)O)CC(=O)O; assay: purified protein, by the assay type; settings: other: substrate MVAP; A. thaliana PMK
[12] = substrate: C=C(C)CCOP(=O)(O)O; assay: purified protein, by the assay type; settings: other: substrate IP
[13] = substrate: CC(O)(CCOP(=O)(O)OP(=O)(O)O)CC(=O)O; assay: purified protein, by the assay type; settings: other: substrate MVAPP; A. thaliana MDD

Molecule: C=C(C)CCOP(=O)(O)O [IP, isopentenyl phosphate]
- Ki (IPK from B. floridae): 2.82 mM
- Ki (IPK from M. maripaludis): 877 µM
- Ki (IPK from A. thaliana): 522 µM

Molecule: CC(O)(CCOP(=O)(O)O)CC(=O)O (stereo not shown) [MVAP, phosphomevalonate]
- Ki (PMK from S. solfataricus): 5.5 mM
- kcat (PMK from S. solfataricus; substrate MVAP, S. solfataricus PMK): 1.98 (±0.10) s^−1
- turnover of MVAP (decarboxylase activity) (MJ0403): failed to show any turnover
- kcat (PMK from B. floridae): 12.6 (±0.4) s^−1
- Km ([1]; decarboxylation of MVAP to IP, read-out: apparent KM for MVAP): 1.15 mM
- kcat ([1]; substrate MVAP): 0.94 s^−1 and 0.94 (±0.08) s^−1
- Km ([1]; substrate MVAP, read-out: KM): 1.15 mM
- conversion of MVAP to 5-EA [2]: 2.0%
- conversion to 5-EA [3]: < 0.2%
- conversion of MVAP to 5-EA [4]: 48.7%
- conversion of MVAP to 5-EA [5]: 52.1%
- conversion of MVAP to 5-EA [6]: 39.2%
- 5-EA formation [7]: do not yield any detectable 5-EA
- 5-EA formation [8]: do not yield any detectable 5-EA
- 5-EA formation [9]: do not yield any detectable 5-EA

Molecule: CC(O)(CCOP(=O)(O)OP(=O)(O)O)CC(=O)O (racemic) [MVAPP, diphosphomevalonate]
- Km (MDD from B. floridae): 15.1 µM
- kcat (MDD from B. floridae): 1.36 (±0.09) s^−1
- decarboxylation of MVAPP to IPP at a measurable rate [10]: does not catalyze
- rate of decarboxylation of MVAPP (MDD from S. solfataricus): very slow rate

B1: PMK from A. thaliana (Arabidopsis thaliana) (protein)
chain: MAVVASAPGKVLMTGGYLVLEKPNAGLVLSTNARFYAIVKPINEEVKPESWAWKWTDVKLTSPQLSRESMYKLSLNHLTLQSVSASDSRNPFVEHAIQYAIAAAHLATEKDKESLHKLLLQGLDITILGSNDFYSYRNQIESAGLPLTPESLGTLAPFASITFNAAESNGANSKPEVAKTGLGSSAAMTTAVVAALLHYLGVVDLSDPCKEGKFGCSDLDVIHMIAQTSHCLAQGKVGSGFDVSCAVYGSQRYVRFSPEVLSFAQVAVTGLPLNEVIGTILKGKWDNKRTEFSLPPLMNLFLGEPGSGGSSTPSMVGAVKKWQMSDPEKARENWQNLSDANLELETKLNDLSKLAKDHWDVYLRVIKSCSVLTSEKWVLHATEPINEAIIKELLEAREAMLRIRILMRQMGEAASVPIEPESQTQLLDSTMSAEGVLLAGVPGAGGFDAIFAITLGDSGTKLTQAWSSHNVLALLVREDPHGVCLESGDPRTTCITSGVSSIHLE
- Km [11]: 11.8 (±2.0) μM
- kcat [11]: 20.9 ± 0.7 s⁻¹
- kcat/Km [11]: 1.77e+06 ± 310000 M⁻¹ s⁻¹

B2: IPK from M. maripaludis (Methanococcus maripaludis S2) (protein)
chain: MFAILKLGGSILCDKNIPYSINWENLENIAIEIKEAIEYYKSKNEEFKLIIVHGGGSFGHPVAKKYLKDGKFVDMGKGYWEIQKAMRKFNNIVIEELQNFEIPAVSIQASSFITFDNESNLHFDTNAVEKMLDKGLIPVIHGDIVIDEKTDNFKIFSGDHALPFLSKKLNPDLSLHASDVDGVWDLNFKIIENINSKNIEDVLKSLKPSNKEDVTGGMHLKVMECYNLGIKTIIFNGNKKRNIYNALLKNVKGTLIN
- Km ([12]; M. maripaludis IPK): 21.4 (±4.3) μM
- kcat ([12]; M. maripaludis IPK): 15.2 s⁻¹
- kcat/Km ([12]; M. maripaludis IPK): 710000 M⁻¹ s⁻¹

B3: MDD from A. thaliana (Arabidopsis thaliana) (protein)
chain: MAEEKWVVMVTAQTPTNIAVIKYWGKRDEVRILPINDSISVTLDPDHLCTLTTVAVSPSFDRDRMWLNGKEISLSGSRYQNCLREIRSRADDVEDKEKGIKIAKKDWEKLHLHIASHNNFPTAAGLASSAAGFACLVFALAKLMNVNEDPSQLSAIARQGSGSACRSLFGGFVKWNMGNKEDGSDSVAVQLVDDKHWDDLVIIIAVVSSRQKETSSTSGMRESVETSLLLQHRAKEVVPVRILQMEEAIKNRDFTSFTKLTCSDSNQFHAVCMDTSPPIFYMNDTSHRIISLVEKWNRSAGTPEIAYTFDAGPNAVMIARNRKVAVELLQGLLYCFPPKPDTDMKSYVLGDTSIVKEAGLEGELPQGIKDKIGSQDQKGEVSYFICSRPGRGPVVLQDQTQALLHPQTGLPK
- Km [13]: 15.7 (±5.0) μM
- kcat [13]: 2.02 ± 0.13 s⁻¹
- kcat/Km [13]: 130000 ± 40000 M⁻¹ s⁻¹

B4: IPK from T. adhaerens (Trichoplax adhaerens) (protein)
chain: MALENRHVDCIIKLGGSAITSKQHLEKANTQAINIAASHVHEMTRKCVIVHGAGSFGHFHAKKYNIATGFNDTDFEQQRIGFSQTRLSVTKLNHIIVQALIEKDVPAVSISPCGLWKTTDRSVTSTFLQPINDLLRAGFVPVVHGDAVIDTSLGCTILSGDTIIQILAENLCPKRIIFITDTNGIYDRPPHNDDAKLLRYISVTKDGKVTNEIETSQLEHDVTGGVQTKIASAAHIVSKCNIPVHVVKLGSAAAWKLLDKGELEESDIATTITLQESEYPK
- Km ([12]; T. adhaerens IPK): 3.1 (±1.6) μM
- kcat ([12]; T. adhaerens IPK): 2.4 s⁻¹
- kcat/Km ([12]; T. adhaerens IPK): 770000 M⁻¹ s⁻¹

B5: IPK from B. floridae (Branchiostoma floridae) (protein)
chain: MVSSSRSKVMAEADASLECIVKLGGSAVTDKSTLETPRLDAIRAAADIISQVRGRCIVVHGAGSFGHFQAREHGVVWGYRDKETDTEVQTVKLGFCRTRQSVTKLLHIITEEFVRLGIPAVGVSPLSSWVTDDASVVKADTDNIRDMLLEGFLPVMHGDAVLDRKRGCTILSGDTIIKHLCSVFRPPRVVFLTDVPGIYDRPPEQPGAQLIPEIQVDRDRKLHVSIATSSQAHDVTGGIALKLKSAIDIVTESNGHTCVMVCGIQSQAAVRACVEGQLPQGTGTIVQLNISKHPDEVT
- Km ([12]; B. floridae IPK): 13.3 (±2.0) μM
- kcat ([12]; B. floridae IPK): 27.2 s⁻¹
- kcat/Km ([12]; B. floridae IPK): 2.05e+06 M⁻¹ s⁻¹

B6: IPK from A. thaliana (Arabidopsis thaliana) (protein)
chain: MELNISESRSRSIRCIVKLGGAAITCKNELEKIHDENLEVVACQLRQAMLEGSAPSKVIGMDWSKRPGSSEISCDVDDIGDQKSSEFSKFVVVHGAGSFGHFQASRSGVHKGGLEKPIVKAGFVATRISVTNLNLEIVRALAREGIPTIGMSPFSCGWSTSKRDVASADLATVAKTIDSGFVPVLHGDAVLDNILGCTILSGDVIIRHLADHLKPEYVVFLTDVLGVYDRPPSPSEPDAVLLKEIAVGEDGSWKVVNPLLEHTDKKVDYSVAAHDTTGGMETKISEAAMIAKLGVDVYIVKAATTHSQRALNGDLRDSVPEDWLGTIIRFSK
- Km ([12]; A. thaliana IPK): 0.79 (±0.35) μM
- kcat ([12]; A. thaliana IPK): 1.9 s⁻¹
- kcat/Km ([12]; A. thaliana IPK): 2.4e+06 M⁻¹ s⁻¹
